The source of these data is patent US20180303807A1, “ANDROGEN RECEPTOR LIGANDS” (DUKE UNIVERSITY, priority 2015, published 2018).

A value given as a limit tells only on which side of the number the result lay.

The target in one assay is T1, AR (Homo sapiens, UniProt P10275).
T1 construct: expressed in transfected cells; host or cells: CV1 cells
T1 sequence (P10275 1-920): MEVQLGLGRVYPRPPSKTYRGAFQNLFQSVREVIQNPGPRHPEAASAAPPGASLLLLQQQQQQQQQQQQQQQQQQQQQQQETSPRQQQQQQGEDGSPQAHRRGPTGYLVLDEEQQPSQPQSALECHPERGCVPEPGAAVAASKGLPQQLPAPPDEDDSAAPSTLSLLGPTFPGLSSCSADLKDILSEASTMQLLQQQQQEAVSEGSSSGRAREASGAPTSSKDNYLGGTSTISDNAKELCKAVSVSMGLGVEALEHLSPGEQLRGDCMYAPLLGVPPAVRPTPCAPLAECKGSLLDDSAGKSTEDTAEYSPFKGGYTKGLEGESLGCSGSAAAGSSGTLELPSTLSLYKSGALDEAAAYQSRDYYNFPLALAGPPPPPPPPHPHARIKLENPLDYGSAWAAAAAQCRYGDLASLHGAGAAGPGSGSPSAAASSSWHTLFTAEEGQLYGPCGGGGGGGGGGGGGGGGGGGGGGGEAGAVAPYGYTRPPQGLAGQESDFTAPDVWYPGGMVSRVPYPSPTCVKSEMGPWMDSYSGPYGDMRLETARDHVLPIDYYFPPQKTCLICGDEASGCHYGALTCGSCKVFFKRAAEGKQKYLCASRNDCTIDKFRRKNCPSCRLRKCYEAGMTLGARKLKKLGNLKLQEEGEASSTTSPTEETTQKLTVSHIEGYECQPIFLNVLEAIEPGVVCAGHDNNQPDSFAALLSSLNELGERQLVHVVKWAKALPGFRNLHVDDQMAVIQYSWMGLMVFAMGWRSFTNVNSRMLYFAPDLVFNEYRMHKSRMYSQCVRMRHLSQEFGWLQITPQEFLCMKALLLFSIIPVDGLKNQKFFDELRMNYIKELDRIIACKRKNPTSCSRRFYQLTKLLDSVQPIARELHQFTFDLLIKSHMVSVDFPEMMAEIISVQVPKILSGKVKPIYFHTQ
Briefly: Reporter gene assay, AR transcriptional (MMTV-Luc) in CV1 cells. The class given is cell-based. The following applies: pcDNA-AR + MMTV-Luc, 0.1 nM R1881 plus test compound, 24 hrs. Here is the method:
Reporter Gene Assay (IC50 determination, Table 2, B1-B3). CV1 cells were seeded into 96-well cell culture plates and transfected with Lipofectin. For AR transcriptional assays, the DNA mixture consisted of pcDNA-AR, MMTV-Luc (androgen responsive reporter gene), and Renilla-Luc (for assessing transfection efficiency and toxicity). Following overnight incubation, cells were induced with hormone (0.1 nM R1881 (synthetic AR agonist) plus increasing concentrations of test compound) for 24 hrs. Cells were lysed and luciferase activity was quantified using Dual Luciferase Reagent (DLR). IC50 determination was assessed using GraphPad Prism software.
For orientation: Reporter assays use an easily measured gene product as a stand-in for the process of interest.
Turning to `CC1(C)CC(=O)C2=C(C1)Nc1c(ccc3ncccc13)C2c1ccc([N+](=O)[O-])cc1` (stereo not drawn) [Compound A44], the “B1 = AR transcriptional IC50 (μM) in CV1 cells” value is given as “Inactive”. Same read-out and setting: as for `CC1(C)CC(=O)C2=C(C1)Nc1ccc3ncccc3c1C2c1ccc(S(C)(=O)=O)cc1` (stereo not drawn) [Compound A36], the entry is “Inactive”.

The assay is the same for the next values; noted with them: pcDNA-AR + MMTV-Luc, 0.1 nM R1881 plus test compound, 24 hrs, read-out: B1 = AR transcriptional IC50 (μM) in CV1 cells.
In general, IC50 refers to the concentration at which inhibition is half-maximal. In the case of `CC1(C)CC(=S)C2=C(C1)Nc1ccc3ncccc3c1C2c1ccc(F)c(F)c1` (racemic) [Compound A82, (±)-12-(3,4-difluorophenyl)-9,9-dimethyl-8,9,10,12-tetrahydrobenzo[b][4,7]phenanthroline-11(7H)-thione], the IC50 stood at 9.1 µM.

In the case of `CC1(C)CC(=O)C2=C(C1)Nc1ccc3ncccc3c1C2c1ccc(C#N)cn1` (stereo not drawn) [Compound A56], the IC50 was determined as 1.2 µM. Same read-out and setting: as for `Cc1ccc(C2C3=C(CC(C)(C)CC3=O)Nc3ccc4nccnc4c32)s1` (racemic) [Compound A104, (±)-9,9-dimethyl-12-(5-methylthiophen-2-yl)-8,9,10,12-tetrahydropyrazino[2,3-a]acridin-11(7H)-one], the figure is 2 µM; as for `Cc1ccsc1C1C2=C(CC(C)(C)CC2=O)Nc2ccc3nccnc3c21` (stereo not drawn) [Compound A115], greater than 10 µM; as for `Cc1ccc2c3c(ccc2n1)NC1=C(C(=O)CC(C)(C)C1)C3c1ccc(F)c(F)c1` (racemic) [Compound A81, (±)-12-(3,4-difluorophenyl)-3,9,9-trimethyl-8,9,10,12-tetrahydrobenzo[b][4,7]phenanthrolin-11(7H)-one], greater than 10 µM.

Turning to `CC1(C)CC(=O)C2=C(C1)Nc1ccc3cn[nH]c3c1C2c1ccc(Br)s1` (stereo not drawn) [Compound A112], the 50% inhibitory concentration (IC50) was found to be 3.2 µM. Same read-out and setting: next, `CC1(C)CC(=O)C2=C(C1)Nc1ccc3ncccc3c1C2c1ccc(C(=O)O)cc1` (stereo not drawn) [Compound A37]: 38 µM; `CC1(C)CC(=O)C2=C(C1)Nc1ccc3ncccc3c1C2c1ccc(F)cc1` (stereo not drawn) [Compound A40]: 1.7 µM; `CC1(C)CC(=O)C2=C(C1)Nc1ccc3cn[nH]c3c1C2c1ccc(F)c(F)c1` (stereo not drawn) [Compound A77]: greater than 10 µM.

For the compound `CC1(C)CC(=O)C2=C(C1)Nc1ccc3ncncc3c1C2c1ccc(F)c(F)c1` (racemic) [Compound A86, (±)-12-(3,4-difluorophenyl)-9,9-dimethyl-8,9,10,12-tetrahydropyrimido[5,4-a]acridin-11(7H)-one], the IC50 is 1.8 µM.

With `CC1(C)CC(=O)C2=C(C1)Nc1ccc3ncccc3c1C2c1ccc(Cl)c(Cl)c1` (stereo not drawn) [Compound A31], the IC50 was determined as 2.2 µM.

In the case of `CC1(C)CC(=O)C2=C(C1)Nc1ccc3ncccc3c1C2c1cncnc1` (stereo not drawn) [Compound A58], the IC50 was greater than 10 µM. As for `CC1(C)CC(=O)C2=C(C1)Nc1ccc3cnccc3c1C2c1ccc([N+](=O)[O-])cc1` (stereo not drawn) [Compound A43], the IC50 came to 9.1 µM.

Turning to `CC1(C)CC(=O)C2=C(C1)Nc1ccc3ncccc3c1C2c1ccc(B(O)O)c(F)c1` (stereo not drawn) [Compound A39], the IC50 amounted to 52 µM. Still for that read-out and setting: next, `CC1(C)CC(=O)C2=C(C1)Nc1ccc3cn[nH]c3c1C2c1ccc(Cl)s1` (stereo not drawn) [Compound A108]: 1.2 µM; `Cc1ccc(C2C3=C(CC(C)(C)CC3=O)Nc3ccc4ccccc4c32)s1` (stereo not drawn) [Compound A106, 9,9-dimethyl-12-(5-methylthiophen-2-yl)-8,9,10,12-tetrahydrobenzo[a]acridin-11(7H)-one]: 0.8 µM; `CC1(C)CC(=O)C2=C(C1)Nc1ccc3ncccc3c1C2c1ccc([N+](=O)[O-])c(O)c1` (stereo not drawn) [Compound A38]: 3.3 µM.

For `CC1(C)CC(=O)C2=C(C1)Nc1cc(N3CCCC3)ccc1C2c1cc2ccccc2s1` (racemic) [Compound A94, (±)-9-(benzo[b]thiophen-2-yl)-3,3-dimethyl-6-(pyrrolidin-1-yl)-3,4,9,10-tetrahydroacridin-1(2H)-one], the IC50 is greater than 10 µM.

Take `CC1(C)CC(=O)C2=C(C1)Nc1ccc3ccccc3c1C2c1cc2ccccc2s1` (racemic) [Compound A95, (±)-12-(benzo[b]thiophen-2-yl)-9,9-dimethyl-8,9,10,12-tetrahydrobenzo[a]acridin-11(7H)-one]: the IC50 came out at 0.5 µM.
